Measurements from PubChem BioAssay (NCI).
“And” between values parts separate entries of the source, which are not always exact repeats. Equal values may be shown once.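 96-well plates; 48 h exposure; 5 concentrations. Endpoints by linear interpolation between flanking doses. Not reached: highest tested concentration assigned. GI50 marks 50% less growth. TGI: total growth inhibition.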

System: MDA-MB-468 breast
Experiment: inhibition of tumour cell growth, NCI panel, 48 h

SMILES | GI50 | TGI
CC(C)(C)[Si](C)(C)OC1[C@@H](O[Si](C)(C)C(C)(C)C)[C@@H](CNC(=O)NC(=O)NC(=O)CI)O[C@H]1n1cnc2c(NC(=O)Nc3ccccc3)ncnc21 (stereo not given in full) | 334 nM | 2060 nM
Clc1ccc(N2COOC3(OOC2)C2CC4CC(C2)CC3C4)cc1 | 5800 nM | > 67800 nM
c1ccc(Oc2c3ccccc3nc3ccccc23)cc1 | 1350 nM | 4620 nM
O=C(CCl)Nc1ccccc1SCc1cc(Cl)cc2c1OCOC2 | 1930 nM | 4500 nM
COc1cccc(-c2nc(-c3ccc(NS(=O)(=O)c4ccccc4)cc3)[nH]c2-c2ccnc(Br)c2)c1 | 1980 nM | 5230 nM
OCc1ccc(N(Cc2ccc(F)cc2)C2CCC2)cc1Cl | 17.6 nM | 46.4 nM
COc1cc(-c2cc(C(=O)Nc3nc4ccccc4s3)nc3cc(-c4ccccc4)nn23)cc(OC)c1OC | 13900 nM | 38000 nM
c1ccc2c(NCCCn3ccnc3)c3oc4ccccc4c3nc2c1 | 1660 nM | 3420 nM
C=C1C(=O)O[C@H]2[C@H]1CC/C(COC(=O)/C=C/c1cccnc1)=C\CC[C@@]1(C)O[C@@H]21 | 831 nM | 4300 nM
O=C(Nc1ncc([N+](=O)[O-])s1)c1cccc([N+](=O)[O-])c1 | 3420 nM | 38700 nM
O=C(Nc1cccc(NS(=O)(=O)c2ccc(F)cc2)c1)c1ccc(-c2ccccc2)cc1 | 2180 nM | 9560 nM
COc1ccc(/C=C(\C#N)n2nnc3cc(Cl)ccc32)cc1 | 258 nM | 941 nM
CCN(CC)c1ccc2[nH]c3c(C(N)=O)cc(=O)c(=O)c=3oc2c1 | 1850 nM | 4750 nM
CS(=O)(=O)c1ccc(Oc2nccc(-c3c(-c4ccc(F)cc4)ncn3C3CCNCC3)n2)cc1 | 19100 nM | > 25000 nM
O=c1oc2ccccc2c(Cl)c1Cl | 1850 nM | 4320 nM
COc1ccc(-c2nc3sccn3c2/C=C/C(=O)c2cc(OC)c(OC)c(OC)c2)cc1OC | 2150 nM | 5020 nM
O=C1C(Cl)=C(Oc2ccccc2)C(=O)c2ccccc21 | 1930 nM | 3750 nM
COc1c(O)cc2oc3cc(O)c(CC=C(C)C)c(O)c3c(=O)c2c1C/C=C(\C)CCC=C(C)C | 7160 nM | 12500 nM
COc1ccc(/C=C\c2cc(OC)c(OC)c(OC)c2)cc1NC(=O)[C@@H](N)CO | < 17.8 nM | 1270 nM
Nc1nc(-c2cccc([N+](=O)[O-])c2)c(N=Nc2ccccc2[N+](=O)[O-])s1 | 2700 nM | 26200 nM

SMILES | GI50 | TGI
COc1ccc(-n2c(-c3ccc(NC(=O)CCCl)cc3)nnc2-c2cc(OC)c(OC)c(OC)c2)cc1 | 2080 nM | 5680 nM
COC(=O)/C=C1\SC(=Nc2ccc(C(F)(F)F)cc2)N(CCc2c[nH]c3ccccc23)C1=O | 2080 nM | 4050 nM
Cc1ccc2c(/C=C/C(=O)c3cc(CN4CCOCC4)c(O)c4nc(C)ccc34)cc(CN3CCOCC3)c(O)c2n1 | 434 nM | 2020 nM
Cn1cc(-c2nc(-c3c[nH]c4ncccc34)cs2)c2cc(Cl)ccc21 | 316 nM | 2340 nM
Cc1c(C(=O)CCl)c(=O)n(-c2ccccc2)n1C | 675 nM | 3080 nM
O=C(CSc1nc2ccc([N+](=O)[O-])cc2[nH]1)Nc1cccc(C(F)(F)F)c1 | 964 nM | 4710 nM
COc1ccc(/C=C/C(=O)/C=C(/C=C/c2ccc(OC)c(OC)c2)OB(F)F)cc1OC | 578 nM | 2890 nM
CCOC(=O)Oc1c(OC)cc(C(=O)c2ccc(OC)c(OC(=O)CCl)c2OC)cc1OC | 2490 nM | > 100000 nM
C[C@@H](Oc1cc(-c2cnn(C3CCNCC3)c2)cnc1N)c1c(Cl)ccc(F)c1Cl | 1060 nM | 3720 nM
COc1cc(-c2nnc(SCc3ccc(O)c4ncccc34)n2-c2ccccc2)cc(OC)c1OC | 251 nM | 2530 nM
CCN(Cc1ccc(F)cc1F)c1ccc(CO)c(Cl)c1 | 15.9 nM | 39.5 nM
Nc1nc(N)c2c(n1)NC(c1ccc(F)cc1)CC(c1ccc(Nc3nc(NCCO)nc(Nc4ccc(Cl)cc4)n3)cc1)=N2 (stereo not given) | 1480 nM | 3150 nM
COc1ccc(C(=O)c2cc(OC)c(OC)c(OC)c2)cc1/C=C/C(=O)c1ccc(O)cc1 | 2070 nM | 8090 nM
O=S(=O)(Nc1cccc2ccccc12)c1ccc(-c2cnc(C3CC3)o2)cc1 | 43.2 nM | 12800 nM
O=P(Oc1ccccc1)(Oc1ccccc1)C(O)c1ccccc1 (stereo not given) | 35000 nM | > 100000 nM
Clc1ccc(Nc2ccnc(NCCNc3ccnc4cc(Cl)ccc34)n2)cc1 | 1060 nM | 2340 nM
O=C1NC(=O)[C@@H](c2cn3c4c(cccc24)CCC3)[C@@H]1c1c[nH]c2ccccc12 | 306 nM and 260 nM | > 10000 nM and 3810 nM
O=C1c2[nH]cc(CN[C@@H]3CCCN3)c2C(=O)c2c1c(O)c1ccccc1c2O | 1180 nM | 2650 nM
Cc1ccc(C)c(-n2c(-c3ccc(Br)cc3)csc2=NC(=O)c2ccccc2F)c1 | > 100000 nM | > 100000 nM
CCNCCNc1cc(-c2ccc(Cl)cc2)c(C#N)c2nc3ccccc3n12 | 642 nM | 2090 nM
